# According to patent publication US20230090391A1, “OMECAMTIV MECARBIL TABLET” (Amgen Inc., priority 2020, published 2023):
# Structures can show the parent of a compound that is named as a salt.
# What was measured:
# [1] = Phase 1 crossover study: safety and tolerability of single oral doses of OM; type: in vivo, healthy adult subjects; conditions: all 5 treatments
# Protocol: The secondary objective of the study was to evaluate the safety and tolerability of a single 6 mg dose (administered as mini-tablets) or 25 mg dose (administered as a MR tablet or mini-tablets) of OM administered to healthy adult subjects.
# The study was a Phase 1, single-center, open-label, randomized, 5-period, 4-sequence crossover study to investigate the pharmacokinetics, safety, and tolerability of the disclosed tablet formulations and a conventional MR tablet formulation of OM in healthy male and healthy female adult subjects. Subjects were screened to assess eligibility to enter the study within 21 days prior to the first dose administration. Subjects were admitted into the clinical research unit on Day 1 and confined to the clinical research unit for Periods 1 through 5 until discharged at end of study. Following randomization into 1 of 4 treatment sequences, subjects received 1 of the 5 treatments on Day 1 of each treatment period with all subjects receiving all 5 treatments. Blood was collected at predetermined timepoints to characterize plasma concentrations of OM. Safety and tolerability monitoring was performed throughout the study.
# Up to twenty subjects (5 per sequence) were enrolled in the study. Data for all 20 subjects entered into the study were included in the PK and safety analyses. Healthy male or female subjects were selected according to inclusion and exclusion criteria. The subjects were assigned to one of the five following Treatment Groups (A-E): • Treatment Group A: 25 mg (1×25 mg) OM MR tablet; • Treatment Group B: 25 mg (25×1 mg) OM slow-release mini-tablets; • Treatment Group C: 25 mg (25×1 mg) OM fast-release mini-tablets; • Treatment Group D: 6 mg (6×1 mg) OM slow-release mini-tablets; and • Treatment Group E: 6 mg (6×1 mg) OM fast-release mini-tablets.
# The safety analysis included monitoring adverse events, clinical laboratory evaluations, 12 lead electrocardiograms (ECGs), and vital signs during the study.
# All safety data were listed. The treatment-emergent adverse events were summarized by treatment, severity, and relationship to the study drug. The frequency of treatment emergent adverse events was summarized by treatment, system organ class and preferred term of the Medical Dictionary for Regulatory Activities. No inferential statistical analyses were planned.
# [2] = 19F solid state NMR of granulation and IR mini-tablet cores (physical form); type: physicochemical; conditions: 19F SSNMR of IR granulation and IR mini-tablet cores
# Excerpt: Cores 1A-1C, as well as the corresponding granulates, were subjected to analytical characterizations. The results are depicted in FIGS. 3 and 4.
# FIGS. 3 and 4 depict the ^19F solid state NMR (SSNMR) spectra of the immediate-release granulation and immediate-release mini-tablet cores.
SMILES,"Clinical laboratory evaluations, vital signs, 12-lead ECGs ([1]; 20 subjects)",Number of subjects reporting treatment-emergent adverse events considered related to OM ([1]; 20 subjects),Serious adverse events ([1]; 20 subjects),Treatment-emergent adverse events leading to discontinuation ([1]; 20 subjects),"Severity of adverse events ([1]; 20 subjects, resolved by the end of the study)","Number of treatment-emergent adverse events considered related to OM ([1]; myalgia, dizziness, costochondritis, muscle twitching, non-cardiac chest pain)",Stability and physical form during manufacturing [2]
"COC(=O)N1CCN(Cc2cccc(NC(=O)Nc3ccc(C)nc3)c2F)CC1 [OM, Omecamtiv mecarbil]",no clinically significant findings,7 subjects,no serious adverse events,no treatment-emergent adverse events led to premature discontinuation,mild,Eight,–
COC(=O)N1CCN(Cc2cccc(NC(=O)Nc3ccc(C)nc3)c2F)CC1 [omecamtiv mecarbil dihydrochloride monohydrate],–,–,–,–,–,–,stable during manufacturing and exhibits no change in physical form
